From the NIST ThermoML archive (doi:10.1021/je300280s)
“And” between values parts separate entries of the source, which are not always exact repeats. Equal entries are not always repeated. ± gives the expanded uncertainty stated by the source.

Tests used:
[1] = 101.33 kPa, Liquid, Vibrating tube method
[2] = excess molar enthalpy (molar enthalpy of mixing); xn = mol fraction of the nth substance listed; conditions: 101.3 kPa, Liquid, Flow calorimetry
[3] = xn = mol fraction of the nth substance listed; conditions: 101.3 kPa, Liquid, Vibrating tube method

Work on `CC(=O)C(C)=O` [2,3-butanedione] yielded a mass density ([1]; 288.15 K) of 998.09 ± 0.27 kg/m3, a mass density ([1]; 293.15 K) of 991.78 ± 0.27 kg/m3 and a mass density ([1]; 298.15 K) of 985.5 ± 0.27 kg/m3. For the same molecule, the mass density ([1]; 303.15 K) was 979.18 ± 0.27 kg/m3, the mass density ([1]; 308.15 K) was 972.83 ± 0.27 kg/m3 and the mass density ([1]; 313.15 K) was 966.48 ± 0.27 kg/m3. It also gave a mass density ([1]; 318.15 K) of 960.08 ± 0.27 kg/m3.
With `CC/C=C\CCO` [(Z)-3-hexen-1-ol] the mass density ([1]; 288.15 K) was 856.22 ± 0.68 kg/m3, the mass density ([1]; 293.15 K) was 852.44 ± 0.68 kg/m3 and the mass density ([1]; 298.15 K) was 848.64 ± 0.67 kg/m3. It also gave a mass density ([1]; 308.15 K) of 840.99 ± 0.67 kg/m3 and a mass density ([1]; 318.15 K) of 833.27 ± 0.66 kg/m3.
For `CC/C=C\CCO` [(Z)-3-hexen-1-ol] + O, the excess molar enthalpy ([2]; 288.15 K, x1 = 0.000611) was -0.00142 ± 0.000196 kcal/mol, the excess molar enthalpy ([2]; 288.15 K, x1 = 0.000916) was -0.0021 ± 0.000201 kcal/mol and the excess molar enthalpy ([2]; 288.15 K, x1 = 0.001221) was -0.00278 ± 0.000206 kcal/mol. For the same molecule, the excess molar enthalpy ([2]; 288.15 K, x1 = 0.001526) was -0.00344 ± 0.00022 kcal/mol, the excess molar enthalpy ([2]; 288.15 K, x1 = 0.001831) was -0.0041 ± 0.000234 kcal/mol and the excess molar enthalpy ([2]; 288.15 K, x1 = 0.002135) was -0.00473 ± 0.000239 kcal/mol. It also gave an excess molar enthalpy ([2]; 298.15 K, x1 = 0.00061) of -0.000963 ± 0.000194 kcal/mol, an excess molar enthalpy ([2]; 298.15 K, x1 = 0.000915) of -0.00143 ± 0.000196 kcal/mol and an excess molar enthalpy ([2]; 298.15 K, x1 = 0.00122) of -0.00187 ± 0.000201 kcal/mol. For the same molecule, the excess molar enthalpy ([2]; 298.15 K, x1 = 0.001524) was -0.00231 ± 0.000203 kcal/mol, the excess molar enthalpy ([2]; 298.15 K, x1 = 0.001828) was -0.00275 ± 0.000206 kcal/mol and the excess molar enthalpy ([2]; 298.15 K, x1 = 0.002132) was -0.00316 ± 0.000213 kcal/mol. For the same molecule, the excess molar enthalpy ([2]; 308.15 K, x1 = 0.000306) was -0.00028 ± 0.000186 kcal/mol, the excess molar enthalpy ([2]; 308.15 K, x1 = 0.000611) was -0.000528 ± 0.000189 kcal/mol and the excess molar enthalpy ([2]; 308.15 K, x1 = 0.000612) was -0.000533 ± 0.000189 kcal/mol. It also gave an excess molar enthalpy ([2]; 308.15 K, x1 = 0.000916) of -0.000786 ± 0.000191 kcal/mol, an excess molar enthalpy ([2]; 308.15 K, x1 = 0.000918) of -0.000789 ± 0.000191 kcal/mol and an excess molar enthalpy ([2]; 308.15 K, x1 = 0.001221) of -0.00102 ± 0.000194 kcal/mol. For the same molecule, the excess molar enthalpy ([2]; 308.15 K, x1 = 0.001224) was -0.00102 ± 0.000194 kcal/mol, the excess molar enthalpy ([2]; 308.15 K, x1 = 0.001526) was -0.00125 ± 0.000196 kcal/mol and the excess molar enthalpy ([2]; 308.15 K, x1 = 0.001529) was -0.00126 ± 0.000196 kcal/mol. For the same molecule, the excess molar enthalpy ([2]; 308.15 K, x1 = 0.001835) was -0.00146 ± 0.000196 kcal/mol, the excess molar enthalpy ([2]; 318.15 K, x1 = 0.000611) was -0.000141 ± 0.000186 kcal/mol and the excess molar enthalpy ([2]; 318.15 K, x1 = 0.000612) was -0.000139 ± 0.000186 kcal/mol. The excess molar enthalpy ([2]; 318.15 K, x1 = 0.000917) was -0.000198 kcal/mol and -0.000194 kcal/mol, the excess molar enthalpy ([2]; 318.15 K, x1 = 0.001222) was -0.000241 ± 0.000186 kcal/mol and the excess molar enthalpy ([2]; 318.15 K, x1 = 0.001223) was -0.000239 ± 0.000186 kcal/mol. The excess molar enthalpy ([2]; 318.15 K, x1 = 0.001527) was -0.00028 ± 0.000186 kcal/mol, the excess molar enthalpy ([2]; 318.15 K, x1 = 0.001528) was -0.000284 ± 0.000186 kcal/mol and the excess molar enthalpy ([2]; 318.15 K, x1 = 0.001832) was -0.000308 ± 0.000186 kcal/mol. The excess molar enthalpy ([2]; 318.15 K, x1 = 0.001833) was -0.000311 ± 0.000186 kcal/mol, the mass density ([3]; 288.15 K, x1 = 0.000611) was 998.763 ± 0.033 kg/m3 and the mass density ([3]; 288.15 K, x1 = 0.000916) was 998.596 ± 0.033 kg/m3. The mass density ([3]; 288.15 K, x1 = 0.001221) was 998.432 ± 0.033 kg/m3, the mass density ([3]; 288.15 K, x1 = 0.001526) was 998.27 ± 0.033 kg/m3 and the mass density ([3]; 288.15 K, x1 = 0.001831) was 998.106 ± 0.033 kg/m3. The mass density ([3]; 288.15 K, x1 = 0.002135) was 997.95 ± 0.033 kg/m3, the mass density ([3]; 298.15 K, x1 = 0.00061) was 996.68 ± 0.034 kg/m3 and the mass density ([3]; 298.15 K, x1 = 0.000915) was 996.493 ± 0.034 kg/m3. It also gave a mass density ([3]; 298.15 K, x1 = 0.00122) of 996.319 ± 0.034 kg/m3, a mass density ([3]; 298.15 K, x1 = 0.001524) of 996.139 ± 0.035 kg/m3 and a mass density ([3]; 298.15 K, x1 = 0.001828) of 995.963 ± 0.035 kg/m3. It also gave a mass density ([3]; 298.15 K, x1 = 0.002132) of 995.788 ± 0.036 kg/m3, a mass density ([3]; 308.15 K, x1 = 0.000306) of 993.834 ± 0.036 kg/m3 and a mass density ([3]; 308.15 K, x1 = 0.000611) of 993.642 ± 0.037 kg/m3. It also gave a mass density ([3]; 308.15 K, x1 = 0.000612) of 993.637 ± 0.037 kg/m3, a mass density ([3]; 308.15 K, x1 = 0.000916) of 993.442 ± 0.13 kg/m3 and a mass density ([3]; 308.15 K, x1 = 0.000918) of 993.441 ± 0.13 kg/m3. For the same molecule, the mass density ([3]; 308.15 K, x1 = 0.001221) was 993.253 ± 0.12 kg/m3, the mass density ([3]; 308.15 K, x1 = 0.001224) was 993.253 ± 0.096 kg/m3 and the mass density ([3]; 308.15 K, x1 = 0.001526) was 993.064 ± 0.15 kg/m3. The mass density ([3]; 308.15 K, x1 = 0.001529) was 993.059 ± 0.14 kg/m3, the mass density ([3]; 308.15 K, x1 = 0.001831) was 992.912 ± 0.14 kg/m3 and the mass density ([3]; 308.15 K, x1 = 0.001835) was 992.883 ± 0.13 kg/m3. The mass density ([3]; 318.15 K, x1 = 0.000611) was 989.794 ± 0.039 kg/m3, the mass density ([3]; 318.15 K, x1 = 0.000612) was 989.796 ± 0.039 kg/m3 and the mass density ([3]; 318.15 K, x1 = 0.000917) was 989.578 ± 0.039 kg/m3 and 989.591 ± 0.039 kg/m3. For the same molecule, the mass density ([3]; 318.15 K, x1 = 0.001222) was 989.38 ± 0.04 kg/m3, the mass density ([3]; 318.15 K, x1 = 0.001223) was 989.388 ± 0.04 kg/m3 and the mass density ([3]; 318.15 K, x1 = 0.001527) was 989.183 ± 0.04 kg/m3. The mass density ([3]; 318.15 K, x1 = 0.001528) was 989.184 ± 0.04 kg/m3, the mass density ([3]; 318.15 K, x1 = 0.001832) was 988.988 ± 0.04 kg/m3 and the mass density ([3]; 318.15 K, x1 = 0.001833) was 988.984 ± 0.04 kg/m3. For the same molecule, the mass density ([3]; 318.15 K, x1 = 0.002137) was 988.803 ± 0.04 kg/m3 and 988.815 ± 0.04 kg/m3.
`CCCC(=O)OC` [methyl butanoate] gave a mass density ([1]; 288.15 K) of 903.34 ± 0.27 kg/m3, a mass density ([1]; 293.15 K) of 897.88 ± 0.27 kg/m3 and a mass density ([1]; 298.15 K) of 892.38 ± 0.27 kg/m3. For the same molecule, the mass density ([1]; 303.15 K) was 886.86 ± 0.27 kg/m3, the mass density ([1]; 308.15 K) was 881.3 ± 0.27 kg/m3 and the mass density ([1]; 313.15 K) was 875.74 ± 0.27 kg/m3. The mass density ([1]; 318.15 K) was 870.14 ± 0.27 kg/m3.
In the case of `CCCOC(C)=O` [propyl ethanoate], the mass density ([1]; 288.15 K) is reported as 893.2 ± 0.2 kg/m3, the mass density ([1]; 298.15 K) is reported as 882.05 ± 0.2 kg/m3 and the mass density ([1]; 308.15 K) is reported as 870.87 ± 0.2 kg/m3. The mass density ([1]; 318.15 K) was 859.52 ± 0.2 kg/m3.
